Key:
[1] = test system: Mycobacterium tuberculosis Erdman (pMV306hsp+LuxG13); test: Einf, effect of the drug pair at infinite dose (maximum growth inhibition) (fraction inhibition (0-1)); higher = more potent; extreme values may be limits of the assay
Method: (§1)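 DiaMOND pairwise dose responses of an equipotent two-drug mixture (1.5-fold, 10-dose series) against autoluminescent M. tuberculosis Erdman in 384-well plates. Growth inhibition was read by OD600 (luminescence for dormancy) in seven media at a constant and a terminal time point; metrics are means of at least biological duplicates. Einf and AUC25 higher = more potent; GRinf lower = more potent; log2FIC negative = synergy.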

[2] = test system: Mycobacterium tuberculosis Erdman (pMV306hsp+LuxG13); test: log2 fractional inhibitory concentration at 50% inhibition (log2 FIC); higher = more antagonistic
Method: as §1

[3] = test system: Mycobacterium tuberculosis Erdman (pMV306hsp+LuxG13); test: log2 fractional inhibitory concentration at 90% inhibition (log2 FIC); higher = more antagonistic
Method: as §1

[4] = test system: Mycobacterium tuberculosis Erdman (pMV306hsp+LuxG13); test: AUC25, normalised area under the dose-response curve up to IC25 (normalised AUC (unitless)); higher = more potent
Method: as §1

[5] = test system: Mycobacterium tuberculosis Erdman (pMV306hsp+LuxG13); test: GRinf, normalised growth-rate inhibition at infinite dose (GR value (unitless, negative = killing)); higher = less potent
Method: as §1

[6] = growth medium: acidic pH 5.7, glycerol, time point: constant time point
[7] = growth medium: acidic pH 5.7, glycerol, time point: terminal time point
[8] = growth medium: butyrate 5 mM, time point: constant time point
[9] = growth medium: butyrate 5 mM, time point: terminal time point
[10] = growth medium: cholesterol 0.05 mM, time point: constant time point
[11] = growth medium: cholesterol 0.2 mM (cholesterol-high), time point: constant time point
[12] = growth medium: cholesterol 0.2 mM (cholesterol-high), time point: terminal time point
[13] = growth medium: hypoxic dormancy (butyrate + nitrate), then recovery, time point: constant time point
[14] = growth medium: hypoxic dormancy (butyrate + nitrate), then recovery, time point: terminal time point
[15] = growth medium: standard 7H9 OADC glycerol, time point: constant = terminal time point (4.2 d)
[16] = growth medium: valerate 0.1%, time point: constant time point
[17] = growth medium: valerate 0.1%, time point: terminal time point

SMILES: O=[N+]([O-])c1cn2c(n1)OC[C@@H](OCc1ccc(OC(F)(F)F)cc1)C2 [pretomanid] + CC(=O)NC[C@H]1CN(c2ccc(N3CCSCC3)c(F)c2)C(=O)O1 [sutezolid]
- Einf [1, 6]: 0.879
- Einf [1, 7]: 0.987
- Einf [1, 8]: 0.93
- Einf [1, 9]: 0.97
- Einf [1, 10]: 0.865
- Einf [1, 11]: 0.961
- Einf [1, 12]: 1
- Einf [1, 13]: 0.965
- Einf [1, 14]: 0.932
- Einf [1, 15]: 0.988
- Einf [1, 16]: 0.974
- Einf [1, 17]: 0.978
- log2 fractional inhibitory concentration [2, 6]: -0.119
- log2 fractional inhibitory concentration [2, 7]: 0.0862
- log2 fractional inhibitory concentration [2, 8]: 1.07
- log2 fractional inhibitory concentration [2, 9]: 0.95
- log2 fractional inhibitory concentration [2, 10]: -0.159
- log2 fractional inhibitory concentration [2, 11]: -0.512
- log2 fractional inhibitory concentration [2, 12]: -0.395
- log2 fractional inhibitory concentration [2, 13]: -0.376
- log2 fractional inhibitory concentration [2, 14]: -0.056
- log2 fractional inhibitory concentration [2, 15]: 0.0178
- log2 fractional inhibitory concentration [2, 16]: -0.783
- log2 fractional inhibitory concentration [2, 17]: -0.609
- log2 fractional inhibitory concentration [3, 7]: -0.449
- log2 fractional inhibitory concentration [3, 9]: 1.11
- log2 fractional inhibitory concentration [3, 11]: 0.19
- log2 fractional inhibitory concentration [3, 12]: -0.4
- log2 fractional inhibitory concentration [3, 13]: -0.853
- log2 fractional inhibitory concentration [3, 14]: -0.41
- log2 fractional inhibitory concentration [3, 15]: -0.266
- log2 fractional inhibitory concentration [3, 17]: -0.487
- AUC25 [4, 6]: 0.0784
- AUC25 [4, 7]: 0.0823
- AUC25 [4, 8]: 0.0935
- AUC25 [4, 9]: 0.0736
- AUC25 [4, 10]: 0.0266
- AUC25 [4, 11]: 0.0533
- AUC25 [4, 12]: 0.0918
- AUC25 [4, 13]: 0.0715
- AUC25 [4, 14]: 0.0423
- AUC25 [4, 15]: 0.0632
- AUC25 [4, 16]: 0.119
- AUC25 [4, 17]: 0.0856
- GRinf [5, 6]: -0.246
- GRinf [5, 7]: -0.346
- GRinf [5, 8]: 0.0242
- GRinf [5, 9]: -0.0169
- GRinf [5, 10]: -1
- GRinf [5, 11]: -0.417
- GRinf [5, 12]: -0.326
- GRinf [5, 13]: 0.332
- GRinf [5, 14]: 0.457
- GRinf [5, 15]: -0.142
- GRinf [5, 16]: -0.158
- GRinf [5, 17]: -0.0339

SMILES: NC(=O)c1cnccn1 [pyrazinamide] + CC(=O)NC[C@H]1CN(c2ccc(N3CCSCC3)c(F)c2)C(=O)O1 [sutezolid]
- Einf [1, 6]: 0.818
- Einf [1, 7]: 0.99
- Einf [1, 8]: 0.913
- Einf [1, 9]: 0.949
- Einf [1, 10]: 1
- Einf [1, 11]: 0.996
- Einf [1, 12]: 1
- Einf [1, 13]: 0.984
- Einf [1, 14]: 0.786
- Einf [1, 16]: 0.884
- Einf [1, 17]: 0.962
- log2 fractional inhibitory concentration [2, 6]: -0.856
- log2 fractional inhibitory concentration [2, 7]: -0.292
- log2 fractional inhibitory concentration [2, 8]: 0.557
- log2 fractional inhibitory concentration [2, 10]: 0.194
- log2 fractional inhibitory concentration [2, 11]: 0.242
- log2 fractional inhibitory concentration [2, 12]: -0.145
- log2 fractional inhibitory concentration [2, 14]: 0.898
- log2 fractional inhibitory concentration [2, 16]: 0.999
- log2 fractional inhibitory concentration [2, 17]: 0.436
- log2 fractional inhibitory concentration [3, 7]: -0.518
- log2 fractional inhibitory concentration [3, 11]: 0.258
- log2 fractional inhibitory concentration [3, 12]: 0.207
- AUC25 [4, 6]: 0.128
- AUC25 [4, 7]: 0.124
- AUC25 [4, 8]: 0.0878
- AUC25 [4, 9]: 0.0684
- AUC25 [4, 10]: 0.0696
- AUC25 [4, 11]: 0.0979
- AUC25 [4, 12]: 0.105
- AUC25 [4, 13]: 0.0726
- AUC25 [4, 14]: 0.0286
- AUC25 [4, 16]: 0.0804
- AUC25 [4, 17]: 0.0613
- GRinf [5, 6]: -0.0805
- GRinf [5, 7]: -0.272
- GRinf [5, 8]: 0.0976
- GRinf [5, 9]: 0.124
- GRinf [5, 10]: -1
- GRinf [5, 11]: -0.785
- GRinf [5, 12]: -0.929
- GRinf [5, 13]: -0.401
- GRinf [5, 14]: -0.5
- GRinf [5, 16]: -0.147
- GRinf [5, 17]: -0.0671

SMILES: NC(=O)c1cnccn1 [pyrazinamide] + CC(C)=CCC/C(C)=C/CNCCNC1C2CC3CC(C2)CC1C3 [SQ109]
- Einf [1, 8]: 0.915
- Einf [1, 9]: 0.946
- Einf [1, 10]: 0.894
- Einf [1, 11]: 0.977
- Einf [1, 12]: 0.997
- Einf [1, 15]: 0.84
- Einf [1, 16]: 0.933
- Einf [1, 17]: 0.944
- log2 fractional inhibitory concentration [2, 8]: 0.356
- log2 fractional inhibitory concentration [2, 9]: 0.129
- log2 fractional inhibitory concentration [2, 11]: 0.707
- log2 fractional inhibitory concentration [2, 12]: 0.668
- log2 fractional inhibitory concentration [2, 16]: -0.164
- log2 fractional inhibitory concentration [2, 17]: -0.462
- log2 fractional inhibitory concentration [3, 11]: -0.16
- log2 fractional inhibitory concentration [3, 12]: -0.347
- AUC25 [4, 8]: 0.0786
- AUC25 [4, 9]: 0.0634
- AUC25 [4, 10]: 0.116
- AUC25 [4, 11]: 0.0592
- AUC25 [4, 12]: 0.0665
- AUC25 [4, 15]: 0.032
- AUC25 [4, 16]: 0.0384
- AUC25 [4, 17]: 0.0424
- GRinf [5, 8]: -0.00249
- GRinf [5, 9]: 0.022
- GRinf [5, 10]: -0.787
- GRinf [5, 11]: -0.852
- GRinf [5, 12]: -0.789
- GRinf [5, 15]: 0.242
- GRinf [5, 16]: 0.0532
- GRinf [5, 17]: 0.0196

SMILES: CO[C@H]1/C=C/O[C@@]2(C)Oc3c(C)c(O)c4c(O)c(c(/C=N/N5CCN(C)CC5)c(O)c4c3C2=O)NC(=O)/C(C)=C\C=C\[C@H](C)[C@H](O)[C@@H](C)[C@@H](O)[C@@H](C)[C@H](OC(C)=O)[C@@H]1C [rifampicin] + CC(=O)NC[C@H]1CN(c2ccc(N3CCSCC3)c(F)c2)C(=O)O1 [sutezolid]
- Einf [1, 6]: 0.853
- Einf [1, 7]: 0.977
- Einf [1, 8]: 0.911
- Einf [1, 9]: 0.953
- Einf [1, 11]: 0.988
- Einf [1, 12]: 1
- Einf [1, 13]: 0.978
- Einf [1, 14]: 0.971
- Einf [1, 15]: 0.969
- Einf [1, 16]: 0.962
- Einf [1, 17]: 0.979
- log2 fractional inhibitory concentration [2, 6]: 0.233
- log2 fractional inhibitory concentration [2, 7]: 0.315
- log2 fractional inhibitory concentration [2, 8]: -0.239
- log2 fractional inhibitory concentration [2, 9]: -0.147
- log2 fractional inhibitory concentration [2, 11]: -0.0927
- log2 fractional inhibitory concentration [2, 12]: -0.136
- log2 fractional inhibitory concentration [2, 13]: -0.575
- log2 fractional inhibitory concentration [2, 14]: 0.255
- log2 fractional inhibitory concentration [2, 15]: -0.167
- log2 fractional inhibitory concentration [2, 16]: 1.45
- log2 fractional inhibitory concentration [2, 17]: 0.427
- log2 fractional inhibitory concentration [3, 7]: -0.595
- log2 fractional inhibitory concentration [3, 9]: -0.298
- log2 fractional inhibitory concentration [3, 11]: -0.588
- log2 fractional inhibitory concentration [3, 12]: -0.315
- log2 fractional inhibitory concentration [3, 13]: -0.578
- log2 fractional inhibitory concentration [3, 14]: -0.678
- log2 fractional inhibitory concentration [3, 15]: -0.846
- log2 fractional inhibitory concentration [3, 17]: 0.302
- AUC25 [4, 6]: 0.0817
- AUC25 [4, 7]: 0.076
- AUC25 [4, 8]: 0.0989
- AUC25 [4, 9]: 0.0783
- AUC25 [4, 11]: 0.0474
- AUC25 [4, 12]: 0.0807
- AUC25 [4, 13]: 0.0508
- AUC25 [4, 14]: 0.06
- AUC25 [4, 15]: 0.0433
- AUC25 [4, 16]: 0.11
- AUC25 [4, 17]: 0.0701
- GRinf [5, 6]: -0.111
- GRinf [5, 7]: -0.205
- GRinf [5, 8]: 0.0134
- GRinf [5, 9]: -0.0141
- GRinf [5, 11]: -0.878
- GRinf [5, 12]: -0.728
- GRinf [5, 13]: 0.206
- GRinf [5, 14]: 0.237
- GRinf [5, 15]: -0.0246
- GRinf [5, 16]: 0.0594
- GRinf [5, 17]: -0.0207

Source: the supplement of paper PMC9512659
